{
  "source": "patent US9315678B2",
  "about": "“Affinity of hardly soluble or insoluble substance solvent by water-soluble xylan” (Ezaki Glico Co., Ltd., priority 2006, dated 2016)",
  "type_in_all_cases": "physicochemical",
  "key": {"[1]": {"assay": "Carbon nanotube solubilizing capability of saccharide aqueous solutions (absorbance of supernatant at 500 nm)", "details": "for A500: about 4 mg SWCNT-1 per 1 mL, ultra sound 5 min; for amount of the solubilized carbon nanotube (in words): at the investigated concentrations of Table 1", "experimental": "(§1) The amount of the carbon nanotube dissolved in the solution can be measured, for example, by recovering the carbon nanotube by centrifugation at 70,000×g for 15 minutes and measuring the weight thereof. Alternatively, as described in the literature “Chem. Commun.”, P. 193 (2001), the concentration of the carbon nanotube has quite a high correlation with the absorbance at 500 nm, and the water-soluble xylan has almost no absorption at the wavelength. Thus, the concentration of the carbon nanotube is easily determined by measuring the absorbance of the solution at 500 nm, unless the solution contains any other substances having absorption at around 500 nm. In the case where a hardly soluble or insoluble substance is used as another substance, the method for measuring the concentration of the substance in the solution can be appropriately selected in depending on the substance.\nA solubilizing capability of the water-soluble xylan was compared with those of other saccharides. As the water-soluble xylan, glucuronoxylan (manufactured by Institute of Chemistry, Slovak Academy of Sciences; the number average molecular weight: 18,000; xylose residue: 4-O-methyl-D-glucuronic acid reside=10:1; no acetylation) was used. For comparison, various saccharide solutions of amylose (the number average molecular weight of 2,900), pectin (derived from citrus fruit), polygalacturonic acid, methylcellulose, fucoidan, xanthan gum, carboxymethyl cellulose, an Abelmoschus manihot extraction liquid, a Hydrangea paniculata extraction liquid, gum arabic, β-1,3-glucan (schizophyllan, curdlan), and xylo-oligosaccarides (polymerization degrees of 2 and 5) were used.\nTo 1 mL of each of the saccharide aqueous solutions, about 4 mg of the single layer carbon nanotube powder (SWCNT-1 manufactured by Shenzhen Nanotech Port Co., Ltd.) was added and then stirred for about 10 seconds with a Vortex mixer. The mixture was applied ultra sound with a bath type sonicator (UT-205 manufactured by Sharp Corporation) at a room temperature (15° C. to 20° C.) for 5 minutes to dissolve the carbon nanotube. The obtained solution was centrifuged at 2,200×g for 10 minutes, and then the supernatant thereof was collected. The amount of the dissolved carbon nanotube was estimated by measuring the absorbance of the supernatant at 500 nm. The saccharides vary from one another in solubility to water.\nWithin the same concentration range, the absorbances at 500 nm of the solutions containing another saccharide were 3 or less."}, "[2]": {"assay": "Preparation of carbon nanotube solution with water-soluble xylan: absorbance at 500 nm and dissolved carbon nanotube", "experimental": "as §1\nAs water-soluble xylan, glucuronoxylan (manufactured by Institute of Chemistry, Slovak Academy of Sciences; the number average molecular weight: 18,000; xylose residue: 4-O-methyl-D-glucuronic acid reside=10:1; no acetylation; derived from beech) was used. To 1 L of a 0.4 mg/mL glucuronoxylan aqueous solution, 2 g of a single-layer carbon nanotube powder (SWCNT-1 manufactured by Shenzhen Nanotech Port Co., Ltd.) was added, and then stirred with a magnetic stirrer. The mixture was sequentially applied ultra sound by an ultra sound dispersing machine (Model UH-600SR, HO-F36 flanged chip, RD-36 continuous holder; manufactured by SMT Co., Ltd.) at a room temperature (15° C. to 20° C.) for 130 minutes at a flow rate of 1 L/min to dissolve and disperse the carbon nanotube. The obtained solution was centrifuged at 2,200×g for 15 minutes, and then collected the supernatant. The supernatant was a blackish solution.\nThe obtained solution was centrifuged at 70,000×g for 10 minutes to collect the carbon nanotube as a precipitate. To the obtained precipitate, 50 mL of the aforementioned glucuronoxylan aqueous solution was added, and the carbon nanotube was dispersed by applying an ultra sound at a room temperature (15° C. to 20° C.) for 5 minutes with a bath type sonicator (Branson 1200).\nTo 10 L of the water-soluble xylan solution prepared by Preparative Example 1, 5 g of a single-layer carbon nanotube powder (SWCNT-1 manufactured by Shenzhen Nanotech Port Co., Ltd.) was added and then stirred. The mixture was sequentially applied ultra sound by an ultra sound dispersing machine (Model UH-600SR, HO-F36 flanged chip, RD-36 continuous holder; manufactured by SMT Co., Ltd.) at a room temperature (15° C. to 20° C.) for 90 minutes at a flow rate of 1 L/min to dissolve and disperse the carbon nanotube. The obtained solution was centrifuged at 2,200×g for 15 minutes, and then the supernatant was collected. […]"}, "[3]": {"assay": "Carbon nanotube solubilizing capability of saccharide aqueous solutions (absorbance of supernatant at 500 nm)", "details": "Example 2-2, FIG. 4; concentration dependency"}, "[4]": {"details": "saccharide 0.40 mg/mL, supernatant after 2,200xg 10 min"}, "[5]": {"details": "saccharide 5 mg/mL (5.00), supernatant"}, "[6]": {"details": "Example 1-1: 0.4 mg/mL glucuronoxylan, 2 g SWCNT-1 per 1 L, ultra sound 130 min, supernatant after 2,200xg 15 min"}, "[7]": {"details": "Example 1-1: 70,000xg precipitate re-dispersed in 50 mL glucuronoxylan solution, ultra sound 5 min"}, "[8]": {"details": "saccharide 2.50 mg/mL, supernatant"}, "[9]": {"details": "saccharide 10.00 mg/mL, supernatant"}, "[10]": {"details": "saccharide 1.00 mg/mL, supernatant"}, "[11]": {"details": "saccharide 2.00 mg/mL, supernatant"}},
  "data": [
    {"compound": "schizophyllan", "values": [
      {"measurement": "A500", "setting": "[1]; saccharide 0.20 mg/mL, supernatant", "result": 0.12},
      {"measurement": "A500", "setting": "[1]; [4]", "result": 0.95}
    ]},
    {"compound": "OC1OC[C@@H](O[C@@H]2OC[C@@H](O[C@@H]3OC[C@@H](O[C@@H]4OC[C@@H](O[C@@H]5OC[C@@H](O)[C@H](O)[C@H]5O)[C@H](O)[C@H]4O)[C@H](O)[C@H]3O)[C@H](O)[C@H]2O)[C@H](O)[C@H]1O", "note": "(stereo partly drawn)", "values": [
      {"measurement": "amount of the solubilized carbon nanotube (in words)", "setting": "[1]", "result": "did not exhibit solubilization of carbon nanotube at all"},
      {"measurement": "A500", "setting": "[1]; [5]", "result": 0.00}
    ]},
    {"compound": "polygalacturonic acid", "values": [
      {"measurement": "amount of the solubilized carbon nanotube (in words)", "setting": "[1]", "result": "close to that when using the water-soluble xylan"},
      {"measurement": "A500", "setting": "[1]; saccharide 1.90 mg/mL, supernatant", "result": 2.18},
      {"measurement": "A500", "setting": "[1]; saccharide 2.70 mg/mL, supernatant", "result": 5.26}
    ]},
    {"compound": "OC1OC[C@@H](O[C@@H]2OC[C@@H](O)[C@H](O)[C@H]2O)[C@H](O)[C@H]1O", "note": "(stereo partly drawn)", "values": [
      {"measurement": "amount of the solubilized carbon nanotube (in words)", "setting": "[1]", "result": "did not exhibit solubilization of carbon nanotube at all"},
      {"measurement": "A500", "setting": "[1]; saccharide 16 mg/mL, supernatant", "result": 0.00}
    ]},
    {"compound": "glucuronoxylan [Water-soluble Xylan]", "values": [
      {"measurement": "amount of the solubilized carbon nanotube (in words)", "setting": "[1]", "result": "largest"},
      {"measurement": "A500", "setting": "[1]; [4]", "result": 10.70},
      {"measurement": "absorbance at 500 nm", "setting": "[2]; [6]", "result": 7.57},
      {"measurement": "carbon nanotube contained in solution", "setting": "[2]; [6]", "result": "about 282 μg/mL"},
      {"measurement": "absorbance at 500 nm", "setting": "[2]; [7]", "result": 122},
      {"measurement": "carbon nanotube contained in solution", "setting": "[2]; [7]", "result": "about 4.5 mg/mL"},
      {"measurement": "saccharide concentration showing the maximum absorbance at 500 nm", "setting": "[3]", "result": 0.2, "unit": "mg/mL"}
    ]},
    {"compound": "carboxymethyl cellulose [Carboxy Methylcellulose]", "values": [
      {"measurement": "amount of the solubilized carbon nanotube (in words)", "setting": "[1]", "result": "close to that when using the water-soluble xylan"},
      {"measurement": "A500", "setting": "[1]; [8]", "result": 5.64},
      {"measurement": "A500", "setting": "[1]; [9]", "result": 2.37}
    ]},
    {"compound": "methylcellulose", "values": [
      {"measurement": "A500", "setting": "[1]; [10]", "result": 0.16},
      {"measurement": "A500", "setting": "[1]; [11]", "result": 0.80}
    ]},
    {"compound": "xanthan gum", "values": [
      {"measurement": "amount of the solubilized carbon nanotube (in words)", "setting": "[1]", "result": "close to that when using the water-soluble xylan"},
      {"measurement": "A500", "setting": "[1]; [10]", "result": 2.79},
      {"measurement": "A500", "setting": "[1]; [11]", "result": 6.91}
    ]},
    {"compound": "amylose", "values": [
      {"measurement": "A500", "setting": "[1]; [5]", "result": 0.02},
      {"measurement": "A500", "setting": "[1]; [9]", "result": 0.06}
    ]},
    {"compound": "pectin", "values": [
      {"measurement": "amount of the solubilized carbon nanotube (in words)", "setting": "[1]", "result": "close to that when using the water-soluble xylan"},
      {"measurement": "A500", "setting": "[1]; [8]", "result": 3.48},
      {"measurement": "A500", "setting": "[1]; [9]", "result": 6.28}
    ]},
    {"compound": "curdlan", "values": [
      {"measurement": "A500", "setting": "[1]; [4]", "result": 0.02}
    ]},
    {"compound": "gum arabic", "values": [
      {"measurement": "amount of the solubilized carbon nanotube (in words)", "setting": "[1]", "result": "close to that when using the water-soluble xylan"},
      {"measurement": "A500", "setting": "[1]; [10]", "result": 0.73},
      {"measurement": "A500", "setting": "[1]; [9]", "result": 4.30}
    ]},
    {"compound": "fucoidan", "values": [
      {"measurement": "amount of the solubilized carbon nanotube (in words)", "setting": "[1]", "result": "close to that when using the water-soluble xylan"},
      {"measurement": "A500", "setting": "[1]; [8]", "result": 1.33},
      {"measurement": "A500", "setting": "[1]; [9]", "result": 6.80}
    ]}
  ]
}
